“Also recorded” adds a separate entry of the source. Like-named read-outs stand apart in the source and are kept apart here.
What was measured:
[1] = Plasma stability, human; assay type: in vitro ADME; settings: 37 °C; for half-life at 1 µM: human, plasma, up to 2 h, read-out: Plasma Stability Human t 1/2
Method: Dilutions of a 10 mM test compound DMSO stock solution were prepared so that the final DMSO concentration was 1% v/v and the final test compound concentration tested was 1 µM. Following the addition of the test compound to plasma, the samples were pre-incubated for 10 min prior to the start of the incubation by the addition of the test compound. The test compound was incubated (n = 2; 1 µM final concentration) at 37 °C with plasma for up to 2 h. Aliquots were sampled at several time points and mixed with acetonitrile (containing internal standard) to terminate the reaction and precipitate the proteins. All the samples were mixed, centrifuged and the supernatants analysed by UPLC-MSMS. Parent disappearance and half-life (t 1/2) values were determined from the slope of the parent depletion curve. Control compounds (imidapril, enalapril, tenofovir and/or propantheline), were respectively included.

[2] = system: AQ production in PAO1-L; test: Alkylquinolone (HHQ, PQS, HQNO) production by LC-MS/MS, PAO1-L; assay type: cell-based, Pseudomonas aeruginosa; settings: 3x IC50, 16 h, culture supernatant
Method: (§1) HQNO, can protect Staphylococcus aureus from vancomycin [31] and contributes to the environmental competitiveness of P. aeruginosa, through its activity as a potent inhibitor of the cytochrome bc1 complex. […] LC-MS/MS was used to quantify the major AQs HHQ, PQS and HQNO after incubation of the P. aeruginosa strains with the hit compounds, for 16 h. The assay was performed using both PAO1-L and PA14 strains which were treated with PqsR antagonists at concentrations three-fold higher than their IC50 values. The results obtained depended on the inhibitor and strain tested (Figure 5).
(§2) For each test sample, 100 µL of sterile filtered supernatant (the same preparation as for pyocyanin) was spiked with 10 µL of an internal standard solution (10 µM d4-PQS in MeOH), and diluted with water, to a total volume of 500 µL. Samples were then extracted three times with an 0.5 mL aliquot of ethyl acetate, vortex mixing the aqueous/organic mix for 2 min, then removing the organic phase once the layers had successfully partitioned. For each sample, the combined organic extracts were dried under vacuum and re-dissolved in 100 µL MeOH prior to analysis. For the LC-MS/MS analysis of supernatant extracts, the chromatography was achieved using a Shimadzu series 10AD VP LC system (Columbia, MD, USA). The LC column, maintained at 40 °C, was a Phenomenex Gemini C18 (3.0 µm, 100 × 3.0 mm) (Macclesfield, Cheshire, UK) with an appropriate guard column. Mobile phase A was 0.1% (v/v) formic acid in water containing 2 mM 2-picolinic acid, and mobile phase B 0.1% (v/v) formic acid in methanol. The flow rate throughout the chromatographic separation was 450 µL/min. After an injection of a 2 µL/sample, a binary gradient, beginning initially at 30% B, increased linearly to 99% B over 5 min. The composition remained at 99% B for 3 min, decreased to 30% B over 1 min, and stayed at this composition for 4 min, to allow for column equilibration. […] Where chromatographic peaks for HHQ, HQNO and PQS were detected, a peak area was determined, and analyte peak area/internal standard peak area calculated.

[3] = system: PqsR (pqsA promoter, PA14 mCTX::PpqsA-lux); test: Whole cell biosensor reporter assay, PA14 mCTX::PpqsA-lux; assay type: cell-based, Pseudomonas aeruginosa; settings: for IC50: Mean ± SD, n = 3; for activity at 10 µM: PA14, read-out: PA14 Remaining Activity %; for PqsR inhibitory activity (in words), PA14: screen at 10 µM
Method: (§3) To determine the ability of the quinolines to inhibit PqsR functionality, the P. aeruginosa biosensor strains, PAO1-L and PA14, incorporating a chromosomal mCTX::PpqsA-lux transcriptional fusion, were used. These report on the activation of the pqsA promoter, regulated by PqsR [25]. PAO1-L and PA14 were chosen because they are genetically amenable and belong to the two major P. aeruginosa genomic groups. The quinolone compounds were incubated with the corresponding strain, and luminescence and optical density readings were recorded to monitor the effect of the quinolines on PqsR activity and bacterial growth, respectively. The compounds were screened at 10 µM concentration, and the activity was compared to a control of DMSO (0.1%) (Figure 3a). To be considered a hit, a threshold of at least 50% inhibition of the test compound, relative to the negative control had to be reached, without affecting bacterial growth. […] Concentration-response experiments were then carried out to determine the IC50 values (Figure 3b,c), which are summarised in Table 1.
(§4) Strains PA14 mCTX::PpqsA-lux and PAO1-L mCTX::PpqsA-lux were constructed using plasmid mini-CTX::PpqsA-lux, as previously described, and the assay was performed according to a published protocol. For screening, the compounds were tested at a concentration of 10 µM, which was prepared from a 10 mM stock, in DMSO.

[4] = system: pyocyanin production by PA14; test: Pyocyanin production assay, PA14; assay type: cell-based, Pseudomonas aeruginosa; settings: 3x IC50, 16 h
Method: Pyocyanin is a blue redox-active toxin, produced by P. aeruginosa and strongly-controlled by PqsR via the regulation of pqsE expression. Pyocyanin is essential for the pathogenicity of P. aeruginosa in lung infections. The effect of the PqsR inhibitors on pyocyanin production by PA14 and PAO1-L strains, when grown in the presence or absence of the inhibitors, was investigated (Figure 4).
The experiment was performed following a published protocol with minor modifications. P. aeruginosa strains were cultured into 5 mL fresh medium overnight. […] Cells were centrifuged at 10,000 RCF for 10 min (Allegra 64R centrifuge, Beckman Coulter, High Wycombe, UK) and the supernatant was transferred to 15 mL falcon tubes with a HSW 10 mL Soft-Ject Syringe and a […] Sartorius syringe-driven filter (Fisher Brand, Loughborough, UK). Pyocyanin pigment was extracted into chloroform by mixing 7.5 mL of supernatant with 4.5 mL of chloroform. Pyocyanin was further extracted into 1.5 mL of 0.2 M HCL, which gave a pink/red solution, and the absorbance was measured at 520 nm.

[5] = system: AQ production in PA14; test: Alkylquinolone (HHQ, PQS, HQNO) production by LC-MS/MS, PA14; assay type: cell-based, Pseudomonas aeruginosa; settings: 3x IC50, 16 h, culture supernatant
Method: as §1, §2

[6] = system: PqsR (pqsA promoter, PAO1-L mCTX::PpqsA-lux); test: Whole cell biosensor reporter assay, PAO1-L mCTX::PpqsA-lux; assay type: cell-based, Pseudomonas aeruginosa; settings: for IC50: Mean ± SD, n = 3; for activity at 10 µM: PAO1, read-out: PAO1-L Remaining Activity %; for PqsR inhibitory activity (in words), PAO1-L: screen at 10 µM / dose-response
Method: as §3, §4

[7] = Pseudomonas aeruginosa, PA14, read-out: IC50 PA14, PpqsA-lux reporter
[8] = read-out: IC50 PA14, PpqsA-lux reporter
[9] = Pseudomonas aeruginosa, PAO1, read-out: IC50 PAO1-L, PpqsA-lux reporter

SMILES | Plasma stability (in words), human plasma ([1]; 1 µM) | half-life at 1 µM [1] | Inhibition of AQ production (in words), PAO1-L [2] | IC50 [3, 7] | activity at 10 µM ([3]; Pseudomonas aeruginosa) | IC50 [3, 8] | PqsR inhibitory activity (in words), PA14 [3] | Effect on pyocyanin production (in words), PA14 [4] | Inhibition of AQ production (in words), PA14 [5] | IC50 [6, 9] | activity at 10 µM ([6]; Pseudomonas aeruginosa) | PqsR inhibitory activity (in words), PAO1-L [6] | Reduction of pyocyanin production, PA14 ([4]; strain not singled out in the sentence) | IC50 ([6]; read-out: IC50 PAO1-L, PpqsA-lux reporter)
O=CN1N=C(c2ccccc2)CC1c1cccc(Nc2ccnc3cc(Cl)ccc23)c1 (stereo not shown) [Ia] | greatest plasma stability | 2.2 h | strongly-inhibited AQ production | 2200 nM | 18.7 ± 1.98% | 2300 ± 510 nM | strong PqsR inhibitory activity | strongest effect | strongly-inhibited AQ production | 12400 ± 1790 nM | 25.8 ± 1.17% | strong PqsR inhibitory activity; also recorded: modest activity | – | –
CC(=O)N1N=C(c2ccccc2)CC1c1cccc(Nc2ccnc3cc(Cl)ccc23)c1 (stereo not shown) [IIa] | – | 1.23 h | moderate effect | 3700 nM | 19.7 ± 1.9% | 4000 ± 1620 nM | strong PqsR inhibitory activity | weakest effect | moderate effect | 1500 nM | 31.6 ± 6.6% | strong PqsR inhibitory activity | over 25% | 1600 ± 290 nM
